These results are taken from ChEMBL document CHEMBL1201862, “PubChem BioAssay data set” (2004).

Molecules are shown by their SMILES. Active and inactive are the calls of the source.

The nature of experiment [1]: THP-1 cell cytotoxicity, dose response, cytotoxicity control, set 3 (AID 504852). Type of experiment: functional. Particulars: Mycobacterium tuberculosis.
Experiment [2] in a line: Vero cell cytotoxicity, dose response, cytotoxicity control for M. tuberculosis growth inhibitor project, Vero cells, purified and synthesized compounds, set 4 (AID 504854). It counts as functional. Particulars: Mycobacterium tuberculosis.
Experiment [3] can be described thus: Vero cell cytotoxicity, cytotoxicity control for M. tuberculosis inhibitor project, purified and synthesized samples, set 3 (AID 504684). Type of experiment: functional. Conditions: […].
The nature of experiment [4]: THP-1 cell cytotoxicity, cytotoxicity control, set 4 (AID 504911). Particulars: Mycobacterium tuberculosis. It counts as functional.
The target of experiment [5] is Delta-type opioid receptor (Homo sapiens, UniProt P41143). The experiment can be described thus: Counterscreen for agonists of heterodimerization of the mu 1 (OPRM1) and delta 1 (OPRD1) opioid receptors: Luminescence-based cell-based high throughput dose response assay to identify agonists of OPRD1 homodimerization. [Related pubchem assays (depositor defined):AID504326, AID504355, AID504692, AID504904, AID504905]. It counts as functional.

Experiment [6] in a line: HEK293T cytotoxicity, dose response, cytotoxicity control for miR-122 modulator project, cell-based, activator set, cherry-pick (AID 720690).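 Note: HEK293T human cells scored for general mammalian cytotoxicity.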 Type of experiment: functional.
The target in the next experiment is Mu-type opioid receptor (Homo sapiens, UniProt P35372). Put plainly: Counterscreen for agonists of heterodimerization of the mu 1 (OPRM1) and delta 1 (OPRD1) opioid receptors: Luminescence-based cell-based high throughput dose response assay to identify agonists of OPRM1 homodimerization. It counts as functional. A general note: Counterscreens check selectivity or assay interference.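 Note: U2OS cells expressing OPRM1 and beta-arrestin as split beta-galactosidase partners.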

Experiment [7] deals with 5-hydroxytryptamine receptor 5A (Homo sapiens, UniProt P47898). The experiment can be described thus: Counterscreen for agonists of OPRM1-OPRD1 heterodimerization: luminescence-based cell-based high throughput dose response assay to identify agonists of 5-hydroxytryptamine (serotonin) 5A receptor (HTR5A). [Related pubchem assays (depositor defined):AID504326, AID504355, AID504692, AID504904, AID504905]. Type of experiment: functional.

Experiment [8] deals with T1, High affinity choline transporter 1 (Homo sapiens, UniProt Q9GZV3).
T1 sequence (Q9GZV3 whole entry): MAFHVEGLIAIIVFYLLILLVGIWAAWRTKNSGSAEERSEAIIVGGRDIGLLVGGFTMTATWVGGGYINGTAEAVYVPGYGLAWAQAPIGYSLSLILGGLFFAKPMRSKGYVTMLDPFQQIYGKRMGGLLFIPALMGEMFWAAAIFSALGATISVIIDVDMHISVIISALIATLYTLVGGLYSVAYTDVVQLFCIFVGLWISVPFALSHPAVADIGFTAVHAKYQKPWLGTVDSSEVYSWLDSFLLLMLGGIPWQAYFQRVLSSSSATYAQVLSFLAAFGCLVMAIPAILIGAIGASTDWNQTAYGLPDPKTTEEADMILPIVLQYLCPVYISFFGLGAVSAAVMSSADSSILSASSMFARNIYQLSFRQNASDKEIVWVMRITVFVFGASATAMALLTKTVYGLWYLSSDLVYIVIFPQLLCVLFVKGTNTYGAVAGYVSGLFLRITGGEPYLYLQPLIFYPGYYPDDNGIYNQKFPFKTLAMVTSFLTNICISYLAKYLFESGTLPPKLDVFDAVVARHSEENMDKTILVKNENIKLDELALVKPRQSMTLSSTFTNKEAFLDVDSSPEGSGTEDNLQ
The experiment can be described thus: CHT activators, dose response, cell-based, 10-point CRC, membrane potential dye (AID 602376). Type of experiment: functional.

In experiment [9] the target is Dual specificity tyrosine-phosphorylation-regulated kinase 1A (Rattus norvegicus, UniProt Q63470). It counts as biochemical, Homo sapiens.
Experiment [10] concerns the target Protein disulfide-isomerase (Homo sapiens, UniProt P07237). The experiment can be described thus: PDI inhibitors, insulin aggregation turbidity, dose response, biochemical, absorbance, cherry-picked samples (AID 602350). Type of experiment: functional.
Experiment [11] addresses Sphingosine 1-phosphate receptor 2 (Homo sapiens, UniProt O95136). The experiment can be described thus: Late-stage fluorescence-based dose-response cell-based counterscreen assay to identify agonists of the Sphingosine 1-Phosphate Receptor 3 (S1P3): Sphingosine 1-Phosphate Receptor 2 (S1P2) agonist assay. It counts as functional.
The target in experiment [12] is Sphingosine 1-phosphate receptor 4 (Homo sapiens, UniProt O95977). The experiment can be described thus: Late-stage fluorescence-based dose-response cell-based counterscreen assay to identify agonists of the Sphingosine 1-Phosphate Receptor 3 (S1P3): Sphingosine 1-Phosphate Receptor 4 (S1P4) agonist assay. Type of experiment: functional.
The target in experiment [13] is Tyrosine-protein kinase Lck (Homo sapiens, UniProt P06239). Type of experiment: functional.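 Note: lck was assayed as one member of a kinase panel.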
The target in experiment [14] is Tyrosine-protein kinase ABL1 (Homo sapiens, UniProt P00519). It counts as functional.
Experiment [15] concerns the target Vascular endothelial growth factor receptor 2 (Homo sapiens, UniProt P35968). It counts as functional.
In experiment [16] the target is Vascular endothelial growth factor receptor 3 (Homo sapiens, UniProt P35916). Type of experiment: functional.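 Note: value from a kinome-wide profiling panel, with FLT4 as the panel member.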
Experiment [17] addresses Tyrosine-protein kinase Blk (Homo sapiens, UniProt P51451). Type of experiment: functional.
Experiment [18] has as its target Vascular endothelial growth factor receptor 1 (Homo sapiens, UniProt P17948). Type of experiment: functional.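 Note: measured within a kinome-wide profiling panel, FLT1 as the panel member.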
The target of experiment [19] is Receptor-type tyrosine-protein kinase FLT3 (Homo sapiens, UniProt P36888). Type of experiment: functional.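 Note: FLT3 was tested as one member of a kinome-wide kinase panel.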
Experiment [20] deals with Macrophage colony-stimulating factor 1 receptor (Homo sapiens, UniProt P07333). Type of experiment: functional.
Experiment [21] deals with Mast/stem cell growth factor receptor Kit (Homo sapiens, UniProt P10721). It counts as functional.
Experiment [22] concerns the target Proto-oncogene tyrosine-protein kinase Src (Homo sapiens, UniProt P12931). Type of experiment: functional.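 Note: SRC entry within a kinome-wide kinase profiling panel.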
Experiment [23] addresses Tyrosine-protein kinase Lyn (Homo sapiens, UniProt P07948). Type of experiment: functional.
The target of experiment [24] is Tyrosine-protein kinase Fyn (Homo sapiens, UniProt P06241). It counts as functional.
Tyrosine-protein kinase Fyn, sequence (P06241 whole entry): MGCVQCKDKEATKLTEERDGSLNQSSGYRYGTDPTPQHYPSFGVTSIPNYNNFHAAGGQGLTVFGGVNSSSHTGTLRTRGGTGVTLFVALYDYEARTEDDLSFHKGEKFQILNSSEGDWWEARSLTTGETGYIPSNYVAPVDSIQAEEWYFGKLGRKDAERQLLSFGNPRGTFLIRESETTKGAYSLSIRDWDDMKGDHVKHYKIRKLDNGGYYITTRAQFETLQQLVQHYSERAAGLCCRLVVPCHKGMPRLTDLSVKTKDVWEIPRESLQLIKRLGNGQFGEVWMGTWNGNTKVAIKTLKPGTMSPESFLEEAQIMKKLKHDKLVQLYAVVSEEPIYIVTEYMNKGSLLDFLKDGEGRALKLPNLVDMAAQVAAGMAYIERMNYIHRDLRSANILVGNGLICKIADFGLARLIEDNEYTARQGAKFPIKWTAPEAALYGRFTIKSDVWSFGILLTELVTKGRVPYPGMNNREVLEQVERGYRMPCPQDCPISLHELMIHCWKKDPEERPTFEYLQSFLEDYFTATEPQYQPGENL

Mu-type opioid receptor, sequence (P35372 whole entry): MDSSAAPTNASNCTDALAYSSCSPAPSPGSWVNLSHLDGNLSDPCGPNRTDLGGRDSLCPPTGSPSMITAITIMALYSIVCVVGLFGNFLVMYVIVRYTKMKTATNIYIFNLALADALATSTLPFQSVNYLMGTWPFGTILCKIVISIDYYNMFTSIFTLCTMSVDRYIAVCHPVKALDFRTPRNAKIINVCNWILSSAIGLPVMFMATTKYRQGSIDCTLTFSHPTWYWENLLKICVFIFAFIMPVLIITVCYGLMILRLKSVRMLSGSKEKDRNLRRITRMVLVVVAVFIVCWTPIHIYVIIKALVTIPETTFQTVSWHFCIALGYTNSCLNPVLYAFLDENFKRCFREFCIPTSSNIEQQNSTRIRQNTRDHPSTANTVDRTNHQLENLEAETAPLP
Mast/stem cell growth factor receptor Kit, sequence (P10721 whole entry): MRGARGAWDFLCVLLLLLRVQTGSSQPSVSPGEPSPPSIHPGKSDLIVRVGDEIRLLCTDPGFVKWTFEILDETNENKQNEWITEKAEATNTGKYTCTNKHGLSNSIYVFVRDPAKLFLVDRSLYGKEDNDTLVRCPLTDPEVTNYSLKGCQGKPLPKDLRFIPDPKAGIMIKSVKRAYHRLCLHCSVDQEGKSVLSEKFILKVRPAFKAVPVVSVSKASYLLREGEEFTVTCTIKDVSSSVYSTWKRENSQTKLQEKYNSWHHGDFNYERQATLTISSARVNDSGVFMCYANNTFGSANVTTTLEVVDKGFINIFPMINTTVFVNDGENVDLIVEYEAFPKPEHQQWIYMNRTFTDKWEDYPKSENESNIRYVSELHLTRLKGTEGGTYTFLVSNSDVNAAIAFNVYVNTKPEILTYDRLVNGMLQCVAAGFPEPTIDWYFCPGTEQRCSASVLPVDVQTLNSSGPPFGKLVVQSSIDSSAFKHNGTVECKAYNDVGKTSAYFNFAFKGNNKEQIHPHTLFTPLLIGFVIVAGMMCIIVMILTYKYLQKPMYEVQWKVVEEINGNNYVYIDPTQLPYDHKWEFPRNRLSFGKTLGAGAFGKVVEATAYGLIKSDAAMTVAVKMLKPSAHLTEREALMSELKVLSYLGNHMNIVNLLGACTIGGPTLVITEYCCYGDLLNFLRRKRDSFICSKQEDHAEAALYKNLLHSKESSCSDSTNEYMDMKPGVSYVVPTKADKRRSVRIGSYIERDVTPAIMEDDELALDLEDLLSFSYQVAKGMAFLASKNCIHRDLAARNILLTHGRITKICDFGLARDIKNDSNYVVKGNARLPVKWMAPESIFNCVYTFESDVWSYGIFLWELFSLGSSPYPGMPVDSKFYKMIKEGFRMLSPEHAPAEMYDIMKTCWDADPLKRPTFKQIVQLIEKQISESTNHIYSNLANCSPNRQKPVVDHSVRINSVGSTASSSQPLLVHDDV
Delta-type opioid receptor, sequence (P41143 whole entry): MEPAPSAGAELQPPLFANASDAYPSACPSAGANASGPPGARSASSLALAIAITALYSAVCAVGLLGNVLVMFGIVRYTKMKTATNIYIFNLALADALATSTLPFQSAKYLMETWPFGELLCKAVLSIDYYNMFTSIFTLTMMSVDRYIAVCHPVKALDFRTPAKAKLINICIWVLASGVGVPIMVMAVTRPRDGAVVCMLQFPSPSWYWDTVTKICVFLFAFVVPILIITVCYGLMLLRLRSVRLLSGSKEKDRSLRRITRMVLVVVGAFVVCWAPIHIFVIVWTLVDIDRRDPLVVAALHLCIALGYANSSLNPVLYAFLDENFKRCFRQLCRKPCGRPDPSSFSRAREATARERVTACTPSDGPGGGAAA
Vascular endothelial growth factor receptor 2, sequence (P35968 whole entry): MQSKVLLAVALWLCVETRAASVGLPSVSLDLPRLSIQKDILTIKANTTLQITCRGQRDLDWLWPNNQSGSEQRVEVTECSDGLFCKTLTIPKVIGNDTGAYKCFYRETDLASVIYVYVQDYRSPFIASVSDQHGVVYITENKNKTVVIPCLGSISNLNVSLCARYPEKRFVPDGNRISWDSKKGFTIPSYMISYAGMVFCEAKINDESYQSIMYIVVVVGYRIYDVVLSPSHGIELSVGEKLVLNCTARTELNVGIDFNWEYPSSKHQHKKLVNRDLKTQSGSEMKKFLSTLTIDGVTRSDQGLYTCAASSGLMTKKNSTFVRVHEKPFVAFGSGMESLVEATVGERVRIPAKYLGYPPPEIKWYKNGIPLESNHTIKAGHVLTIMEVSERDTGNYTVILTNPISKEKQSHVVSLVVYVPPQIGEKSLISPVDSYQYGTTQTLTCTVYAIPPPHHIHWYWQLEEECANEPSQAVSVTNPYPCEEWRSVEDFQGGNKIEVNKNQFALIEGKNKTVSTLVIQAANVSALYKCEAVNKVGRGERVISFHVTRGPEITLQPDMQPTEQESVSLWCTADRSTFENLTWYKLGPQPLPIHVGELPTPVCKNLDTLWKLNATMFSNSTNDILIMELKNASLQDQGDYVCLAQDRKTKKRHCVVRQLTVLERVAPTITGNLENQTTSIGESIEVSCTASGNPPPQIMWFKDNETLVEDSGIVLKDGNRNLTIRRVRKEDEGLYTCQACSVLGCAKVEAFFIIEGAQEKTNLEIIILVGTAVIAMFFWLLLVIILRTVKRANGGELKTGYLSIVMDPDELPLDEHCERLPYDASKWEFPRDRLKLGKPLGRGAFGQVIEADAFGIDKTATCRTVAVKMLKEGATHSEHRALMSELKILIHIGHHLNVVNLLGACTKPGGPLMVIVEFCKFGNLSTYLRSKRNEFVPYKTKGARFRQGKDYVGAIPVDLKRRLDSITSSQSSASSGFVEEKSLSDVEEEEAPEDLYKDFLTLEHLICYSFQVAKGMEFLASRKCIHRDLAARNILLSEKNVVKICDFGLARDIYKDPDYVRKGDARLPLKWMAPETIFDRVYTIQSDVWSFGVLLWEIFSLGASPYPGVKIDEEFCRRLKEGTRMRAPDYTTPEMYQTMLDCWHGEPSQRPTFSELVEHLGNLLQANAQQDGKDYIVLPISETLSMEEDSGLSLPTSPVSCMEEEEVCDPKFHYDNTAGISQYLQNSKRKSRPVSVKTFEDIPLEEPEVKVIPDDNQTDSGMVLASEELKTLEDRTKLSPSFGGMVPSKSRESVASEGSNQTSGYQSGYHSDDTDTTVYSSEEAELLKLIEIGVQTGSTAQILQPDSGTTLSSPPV
Macrophage colony-stimulating factor 1 receptor, sequence (P07333 whole entry): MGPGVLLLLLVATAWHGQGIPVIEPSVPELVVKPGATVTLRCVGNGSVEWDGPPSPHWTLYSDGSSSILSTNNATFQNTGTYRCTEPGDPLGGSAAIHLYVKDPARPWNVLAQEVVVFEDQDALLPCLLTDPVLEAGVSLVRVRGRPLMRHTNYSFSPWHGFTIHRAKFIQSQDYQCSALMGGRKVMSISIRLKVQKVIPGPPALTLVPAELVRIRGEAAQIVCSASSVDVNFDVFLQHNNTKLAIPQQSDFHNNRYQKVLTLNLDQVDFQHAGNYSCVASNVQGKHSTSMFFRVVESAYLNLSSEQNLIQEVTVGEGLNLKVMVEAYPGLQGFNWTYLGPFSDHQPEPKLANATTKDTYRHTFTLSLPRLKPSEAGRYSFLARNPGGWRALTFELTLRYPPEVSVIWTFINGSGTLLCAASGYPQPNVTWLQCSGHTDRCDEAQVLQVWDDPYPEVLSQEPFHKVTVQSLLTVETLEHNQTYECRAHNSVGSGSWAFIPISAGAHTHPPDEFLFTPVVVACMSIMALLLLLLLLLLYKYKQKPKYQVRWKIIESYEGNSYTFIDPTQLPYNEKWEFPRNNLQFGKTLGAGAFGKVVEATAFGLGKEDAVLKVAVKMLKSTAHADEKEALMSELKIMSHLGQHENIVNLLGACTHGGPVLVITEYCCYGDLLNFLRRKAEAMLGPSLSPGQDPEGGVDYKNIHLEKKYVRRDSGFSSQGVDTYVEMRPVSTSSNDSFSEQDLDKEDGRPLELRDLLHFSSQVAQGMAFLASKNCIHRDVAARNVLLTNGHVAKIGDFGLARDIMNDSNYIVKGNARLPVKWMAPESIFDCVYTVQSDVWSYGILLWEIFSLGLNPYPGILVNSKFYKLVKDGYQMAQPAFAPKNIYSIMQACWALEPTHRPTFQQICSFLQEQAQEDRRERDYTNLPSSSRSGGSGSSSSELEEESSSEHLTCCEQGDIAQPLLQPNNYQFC
5-hydroxytryptamine receptor 5A, sequence (P47898 whole entry): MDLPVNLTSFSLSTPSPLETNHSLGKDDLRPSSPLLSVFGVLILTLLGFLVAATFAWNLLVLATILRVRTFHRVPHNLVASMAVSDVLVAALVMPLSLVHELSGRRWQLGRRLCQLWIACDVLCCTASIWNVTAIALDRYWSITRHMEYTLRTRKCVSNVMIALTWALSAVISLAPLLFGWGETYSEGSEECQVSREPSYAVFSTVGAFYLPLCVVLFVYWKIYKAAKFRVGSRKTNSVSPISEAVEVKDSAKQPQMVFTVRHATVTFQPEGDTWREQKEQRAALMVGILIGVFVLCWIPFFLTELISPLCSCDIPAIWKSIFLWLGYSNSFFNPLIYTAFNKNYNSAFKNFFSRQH

Take `O=C(CSc1nc(O)c2ccccc2n1)NCc1ccc(Cl)cc1`: the cytotoxic concentration (CC50) in experiment [1], in experiment [2], in [3] and in [4] was > 100 µM (active) each time.
For `COc1ccc(CN2CCc3c([nH]c4ccccc34)C2)c(OC)c1C`, the EC50 (in general, the concentration that produces a half-maximal response) was 74.3 µM (inactive) in experiment [5], > 30.8 µM (inactive) on Mu-type opioid receptor, 47.6 µM (inactive) in experiment [7] and 8.4 µM (active) in [8]. Further, the AC50 (in general, the concentration at which the activity in the assay is half-maximal) in experiment [6] is 1.68 µM (active).
On to `COc1cc(-c2oc3cc(O)cc(O)c3c(=O)c2O[C@@H]2O[C@H](COC3O[C@@H](C)[C@H](O)[C@@H](O)[C@H]3O)[C@@H](O)[C@H](O)[C@H]2O)ccc1O` (stereo not given in full), for which the half-maximal activity concentration (AC50) in experiment [9] was 4.62 µM (active); in [10], 7.96 µM (active).
Regarding `CC1CCCCC1N(C(=O)c1cc(C2CC2)on1)C1CCCCC1C` (stereo not given), the EC50 in experiment [11] and in experiment [12] was > 50 µM (inactive) each time.
Consider `Nc1n[nH]c2cccc(-c3ccc(NC(=O)Nc4cccc(C(F)(F)F)c4)c(F)c3)c12`, for which the Ki – broadly, a dissociation constant, usually derived from enzyme kinetics or from competition with a known ligand – in experiment [13] is 0.2 µM (active); in experiment [14], 0.316 µM (active); in experiment [15], 0.000794 µM (active); in [16], 0.00316 µM (active); in experiment [17] it was 0.251 µM (active); in experiment [18], 0.000316 µM (active). Besides, the Ki in [19] is 0.00316 µM (active); in experiment [20], 0.00316 µM (active); in experiment [21], 0.00251 µM (active); in [22] it was 0.158 µM (active); in [23], 0.0398 µM (active); in [24], 0.1 µM (active).
